{"source": "patent US8754226B2", "about": "“Piperidinyl-substituted lactams as GPR119 modulators” (Array BioPharma Inc., priority 2010, dated 2014)", "test_system": "modified version of the GPR119 receptor (94% identity to human receptor)", "assay": "cAMP production assay (LANCE cAMP kit, TR-FRET) in HEK-293 cells", "format": "cell-based", "settings": "for cAMP production in HEK-293 cells: HEK-293 cells stably expressing modified GPR119, test compounds 0.2 nM to 10 μM, one-hour incubation at ambient temperature; for Fold over baseline: increase in cAMP relative to basal levels, agonist activity if 1.5-fold or greater", "summary_of_the_method": "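Doxycycline-induced (1 μg/mL, overnight) HEK-293 cells expressing modified GPR119 were thawed, 2000 cells/well, and exposed to compounds (0.2 nM-10 μM final, 0.5% DMSO) for 1 h at ambient temperature in HBSS/HEPES/BSA. cAMP was measured by LANCE TR-FRET against a standard curve. Agonism was defined as ≥1.5-fold over basal.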", "data": [{"smiles": "CN(C)C(=O)c1cnc(N2CCC(N3CC[C@H](Nc4ccc(S(C)(=O)=O)cc4F)C3=O)CC2)c(Cl)c1", "note": "[Example 157, (S)-5-chloro-6-(4-(3-(2-fluoro-4-(methylsulfonyl)phenylamino)-2-oxopyrrolidin-1-yl)piperidin-1-yl)-N,N-dimethylnicotinamide]", "values": [{"measurement": "cAMP production in HEK-293 cells", "result": 8.3, "unit": "nmol"}, {"measurement": "Fold over baseline", "result": 3.1}]}, {"smiles": "CS(=O)(=O)c1ccc(N[C@H]2CCN(C3CCN(c4ncc(Cl)cc4C#N)CC3)C2=O)c(F)c1", "note": "[Example 116, (S)-5-chloro-2-(4-(3-(2-fluoro-4-(methylsulfonyl)phenyl-amino)-2-oxopyrrolidin-1-yl)piperidin-1-yl)nicotinonitrile]", "values": [{"measurement": "cAMP production in HEK-293 cells", "result": 10.2, "unit": "nmol"}, {"measurement": "Fold over baseline", "result": 2.1}]}, {"smiles": "CS(=O)(=O)c1cc(F)c(N[C@H]2CCN(C3CCN(c4ccc(C(F)(F)F)cn4)CC3)C2=O)c(F)c1", "note": "[Example 101, (S)-3-(2,6-difluoro-4-(methylsulfonyl)phenylamino)-1-(1-(5-(trifluoromethyl)pyridin-2-yl)piperidin-4-yl)pyrrolidin-2-one]", "values": [{"measurement": "cAMP production in HEK-293 cells", "result": 6.6, "unit": "nmol"}, {"measurement": "Fold over baseline", "result": 2.0}]}, {"smiles": "CS(=O)(=O)c1ccc(N[C@H]2CCN(C3CCN(c4ncc(-c5ccccc5)cn4)CC3)C2=O)c(F)c1", "note": "[Example 9, (S)-3-(2-fluoro-4-(methyl-sulfonyl)phenylamino)-1-(1-(5-phenylpyrimidin-2-yl)piperidin-4-yl)pyrrolidin-2-one]", "values": [{"measurement": "cAMP production in HEK-293 cells", "result": 13.5, "unit": "nmol"}, {"measurement": "Fold over baseline", "result": 2.3}]}, {"smiles": "CC(C)c1cnc(N2CCC(N3CCC[C@H](Nc4cc(F)c(S(C)(=O)=O)cc4F)C3=O)CC2)cn1", "note": "[Example 60, (S)-3-(2,5-difluoro-4-(methylsulfonyl)phenylamino)-1′-(5-isopropylpyrazin-2-yl)-[1,4′-bipiperidin]-2-one]", "values": [{"measurement": "cAMP production in HEK-293 cells", "result": 27.4, "unit": "nmol"}, {"measurement": "Fold over baseline", "result": 4.4}]}, {"smiles": "CS(=O)(=O)c1cc(F)c(N[C@H]2CCN(C3CCN(c4ncc(C(F)(F)F)cc4Cl)CC3)C2=O)cc1F", "note": "[Example 111, (S)-1-(1-(3-chloro-5-(trifluoromethyl)pyridin-2-yl)piperidin-4-yl)-3-(2,5-difluoro-4-(methylsulfonyl)phenyl-amino)pyrrolidin-2-one]", "values": [{"measurement": "cAMP production in HEK-293 cells", "result": 37.9, "unit": "nmol"}, {"measurement": "Fold over baseline", "result": 3.0}]}, {"smiles": "CCS(=O)(=O)c1ccc(N[C@H]2CCN(C3CCN(c4cnc(Cl)cn4)CC3)C2=O)cn1", "note": "[Example 128, (S)-1-(1-(5-chloropyrazin-2-yl)piperidin-4-yl)-3-(6-(ethylsulfonyl)pyridin-3-ylamino)pyrrolidin-2-one]", "values": [{"measurement": "cAMP production in HEK-293 cells", "result": 16.6, "unit": "nmol"}, {"measurement": "Fold over baseline", "result": 3.4}]}, {"smiles": "CS(=O)(=O)c1cc(F)c(N[C@H]2CCN(C3CCN(c4ncc(C(F)(F)F)cc4Cl)CC3)C2=O)c(F)c1", "note": "[Example 108, (S)-1-(1-(3-chloro-5-(trifluoromethyl)pyridin-2-yl)piperidin-4-yl)-3-(2,6-difluoro-4-(methylsulfonyl)phenyl-amino)pyrrolidin-2-one]", "values": [{"measurement": "cAMP production in HEK-293 cells", "result": 15.8, "unit": "nmol"}, {"measurement": "Fold over baseline", "result": 2.6}]}, {"smiles": "CS(=O)(=O)c1ccc(N[C@H]2CCN(C3CCN(c4ncc(CO)cc4Cl)CC3)C2=O)c(F)c1", "note": "[Example 156, (S)-1-(1-(3-chloro-5-(hydroxymethyl)pyridin-2-yl)piperidin-4-yl)-3-(2-fluoro-4-(methylsulfonyl)phenylamino)pyrrolidin-2-one]", "values": [{"measurement": "cAMP production in HEK-293 cells", "result": 17.3, "unit": "nmol"}, {"measurement": "Fold over baseline", "result": 2.3}]}, {"smiles": "CS(=O)(=O)c1ccc(N[C@H]2CCN(C3CCN(c4ncc(Cl)cc4F)CC3)C2=O)cn1", "note": "[Example 130, (S)-1-(1-(5-chloro-3-fluoropyridin-2-yl)piperidin-4-yl)-3-(6-(methylsulfonyl)pyridin-3-ylamino)pyrrolidin-2-one]", "values": [{"measurement": "cAMP production in HEK-293 cells", "result": 26.8, "unit": "nmol"}, {"measurement": "Fold over baseline", "result": 3.5}]}, {"smiles": "CS(=O)(=O)c1ccc(O[C@H]2CCN(C3CCN(c4cnc(Cl)cn4)CC3)C2=O)c(F)c1", "note": "[Example 91, (S)-1-(1-(5-chloropyrazin-2-yl)piperidin-4-yl)-3-(2-fluoro-4-(methylsulfonyl)phenoxy)pyrrolidin-2-one]", "values": [{"measurement": "cAMP production in HEK-293 cells", "result": 38.0, "unit": "nmol"}, {"measurement": "Fold over baseline", "result": 3.9}]}, {"smiles": "CS(=O)(=O)c1ccc(O[C@H]2CCN(C3CCN(c4ncc(Cl)cc4F)CC3)C2=O)cn1", "note": "[Example 144, (S)-1-(1-(5-chloro-3-fluoropyridin-2-yl)piperidin-4-yl)-3-(6-(methylsulfonyl)pyridin-3-yloxy)pyrrolidin-2-one]", "values": [{"measurement": "cAMP production in HEK-293 cells", "result": 19.6, "unit": "nmol"}, {"measurement": "Fold over baseline", "result": 2.9}]}, {"smiles": "CCc1ccc(N2CCC(N3CCC(Nc4ccc(S(C)(=O)=O)cc4F)C3=O)CC2)nc1", "note": "(stereo not shown) [Example 24, 1-(1-(5-ethylpyridin-2-yl)piperidin-4-yl)-3-(2-fluoro-4-(methylsulfonyl)phenylamino)pyrrolidin-2-one]", "values": [{"measurement": "cAMP production in HEK-293 cells", "result": 24.8, "unit": "nmol"}, {"measurement": "Fold over baseline", "result": 2.9}]}, {"smiles": "CS(=O)(=O)c1cc(F)c(N[C@H]2CCCCN(C3CCN(c4cncc(Cl)n4)CC3)C2=O)cc1F.Cl", "note": "[Example 84, (S)-1-(1-(6-chloropyrazin-2-yl)piperidin-4-yl)-3-(2,5-difluoro-4-(methylsulfonyl)phenylamino)azepan-2-one hydrochloride]", "values": [{"measurement": "cAMP production in HEK-293 cells", "result": 6.3, "unit": "nmol"}, {"measurement": "Fold over baseline", "result": 1.8}]}, {"smiles": "CCc1cnc(N2CCC(N3CC[C@H](Nc4ccc(S(=O)(=O)CC)cc4F)C3=O)CC2)nc1", "note": "[Example 34, (S)-1-(1-(5-ethylpyrimidin-2-yl)piperidin-4-yl)-3-(4-(ethylsulfonyl)-2-fluorophenylamino)pyrrolidin-2-one]", "values": [{"measurement": "cAMP production in HEK-293 cells", "result": 11.4, "unit": "nmol"}, {"measurement": "Fold over baseline", "result": 2.8}]}, {"smiles": "CCc1cnc(N2CCC(N3CCC[C@H](Nc4ncc(C(F)(F)F)cc4Cl)C3=O)CC2)nc1", "note": "[Example 76, (S)-3-(3-chloro-5-(trifluoromethyl)pyridin-2-ylamino)-1′-(5-ethylpyrimidin-2-yl)-[1,4′-bipiperidin]-2-one]", "values": [{"measurement": "cAMP production in HEK-293 cells", "result": 5.9, "unit": "nmol"}, {"measurement": "Fold over baseline", "result": 1.9}]}, {"smiles": "CCc1cnc(N2CCC(N3CCC(Oc4cc(F)c(S(C)(=O)=O)cc4F)C3=O)CC2)nc1", "note": "(stereo not shown) [Example 87, 3-(2,5-difluoro-4-(methylsulfonyl)phenoxy)-1-(1-(5-ethylpyrimidin-2-yl)piperidin-4-yl)pyrrolidin-2-one trifluoroactetate]", "values": [{"measurement": "cAMP production in HEK-293 cells", "result": 5.5, "unit": "nmol"}, {"measurement": "Fold over baseline", "result": 1.8}]}, {"smiles": "O=C1[C@@H](Nc2ccc(S(=O)(=O)C3CC3)nc2)CCN1C1CCN(c2ncc(Cl)cc2F)CC1", "note": "[Example 126, (S)-1-(1-(5-chloro-3-fluoropyridin-2-yl)piperidin-4-yl)-3-(6-(cyclopropylsulfonyl)pyri-din-3-ylamino)pyrrolidin-2-one]", "values": [{"measurement": "cAMP production in HEK-293 cells", "result": 10.4, "unit": "nmol"}, {"measurement": "Fold over baseline", "result": 2.4}]}, {"smiles": "CS(=O)(=O)c1cc(F)c(N[C@H]2CCCN(C3CCN(c4ncc(C#N)cn4)CC3)C2=O)cc1F", "note": "[Example 51, (S)-2-(3-(2,5-difluoro-4-(methylsulfonyl)phenylamino)-2-oxo-[1,4′-bipiperidin]-1′-yl)pyrimidine-5-carbonitrile]", "values": [{"measurement": "cAMP production in HEK-293 cells", "result": 8.8, "unit": "nmol"}, {"measurement": "Fold over baseline", "result": 2.7}]}, {"smiles": "CS(=O)(=O)c1ccc(O[C@H]2CCN(C3CCN(c4ncc(C(F)(F)F)cc4Cl)CC3)C2=O)c(F)c1", "note": "[Example 136, (S)-1-(1-(3-chloro-5-(trifluoromethyl)pyridin-2-yl)piperidin-4-yl)-3-(2-fluoro-4-(methyl-sulfonyl)phenoxy)pyrrol-idin-2-one]", "values": [{"measurement": "cAMP production in HEK-293 cells", "result": 36.5, "unit": "nmol"}, {"measurement": "Fold over baseline", "result": 3.0}]}]}
